Test results as given in article PMC4057667, “Study on Biopharmaceutics Classification and Oral Bioavailability of a Novel Multikinase Inhibitor NCE for Cancer Therapy” (International Journal of Molecular Sciences, 2014).
“And” between values parts separate entries of the source, which are not always exact repeats. Equal values may be shown once.

Legend:
[1] = pKa determination; assay type: physicochemical; settings: read-out: pKa of conjugate acid
[2] = Intrinsic dissolution rate (IDR) measurement; assay type: physicochemical; settings: phosphate buffer pH 6.8 with 1% SDS, 37 °C, 75 rpm, initial 4 h
Procedure: A modified IDR measurement method was carried out. In brief, 50 mg NCE was compressed under an average compression force of 3.0 MPa for 1 min to make a non-disintegrating compact using a 5 mm die and punch. The surface area of the compact was 0.1963 cm^2. Compacts were placed in a molten beeswax-mold in a way that only one side could come in contact with the dissolution medium. Dissolution study was conducted employing USP II dissolution apparatus using 900 mL phosphate buffer (0.1 mol/mL, pH = 6.8) with 1% SDS (w/v) at 37 ± 1 °C. The paddle rotating speed was 75 rpm. Samples were collected every 30 min for a period of 8 h and analyzed by HPLC. Samples were tested in triplicates.
To evaluate the IDR of NCE, the cumulative amount dissolved per surface unit of the compact was plotted against time. The slope of the linear region (R^2 ≥ 0.95) was taken as the intrinsic dissolution rate. IDR was calculated by the following equation as described previously.
(2) IDR=(dw/dt)(1/S)=DCs/h
where IDR is the intrinsic dissolution rate (mg/min/cm^2); dw is the change in drug dissolved (mg); dt is the change in time (min); S is the surface area of the compact (cm^2); D is diffusion coefficient (cm^2/s); Cs is the solubility (mg/cm^3) and h is the stagnant layer thickness (cm).

[3] = system: vascular endothelial growth factor receptor 2 (VEGFR2); design: method as in PMID 21691074; settings: at a concentration of 10 μM; cited from earlier work
[4] = system: rat duodenum, jejunum and ileum; test: In situ single-pass intestinal perfusion (SPIP)
Procedure: The blank perfusion buffer solution was composed of 9.80 g Hanks’ Balanced Salts, 5.96 g 4-2(Hydroxyethyl) piperazine-1-ethanesulfonic acid (HEPES), 1.16 g NaCl, 3.50 g D-glucose and 0.37 g NaHCO3. The pH was adjusted to 6.5. […] The perfusate containing 2 μg/mL of NCE with and without 0.4% SDS was applied to three intestinal segments to investigate the effect of SDS on intestinal absorption of NCE. To examine whether there was any concentration-dependent characteristics or site specific absorption of NCE, 2, 20 and 40 μg/mL of NCE containing 0.4% SDS (w/v) were also studied in three intestinal segments using the same rat perfusion model.
Male Sprague-Dawley rats (170–230 g) were obtained from the Laboratory Animal Center, Sichuan University (Chengdu, China). Prior to the experiment, animals were fasted for at least 18 h with free access to water. All animal studies were approved and supervised by the State Key Laboratory of Biotherapy Animal Care and Use Committee (Sichuan University, Chengdu, Sichuan, China). Then, single pass intestine perfusion studies were conducted according to the literature. In brief, rats were anaesthetized by pentobarbital sodium (i.p., […]) and placed on a homeothermic pad to maintain their body temperature. After making a 3–4 cm midline abdominal incision, the small intestinal was exposed. The duodenum, jejunum and ileum were isolated as follows: duodenum segment beginning from 1 cm away from pylorus, jejunum segment beginning from 20 cm away from pylorus and ileum segment beginning at the site 20 cm upwards caecum. Each intestinal segment was approximately 10 cm long. After removing the intestinal content by rinsing with warm saline, two glass cannulas were inserted to the distal and proximal end of the segment. Then, the intestinal segments of interest were connected to a perfusion pump and the outlet tubing was placed at the same height as the inlet. The intestine was handled carefully to maintain an intact blood supply.
The segments were rinsed with perfusate at the rate of 1.0 mL/min for 10 min, and then perfused at the rate of 0.2 mL/min for 30 min to maintain a steady-state. The time was set zero immediately when the perfusion started. The outlet perfused samples were collected every 15 min until 120 min. Then, the samples were centrifuged at 1.3 × 10^4 rpm for 10 min. The supernatant was analyzed by HPLC. The length of tested segments was measured and rats were euthanized after experiment.
Peff is the quantitative parameter estimating the passage rate of a solute across a membrane. It was calculated from the steady-state concentration of NCE in the perfusate. The drug concentration in the perfusate was corrected for changes in the water flux. Meanwhile, the density corrected gravimetric method was employed to calculate the net water flux across the incubated intestinal segment. A known volume of perfusate was weighed using an electronic weighing balance to determine the density of the collected samples. After correcting for water flux, the drug concentration in the effluent perfusate (Cout(cor)), was calculated as following.
(3) Cout(cor)=Cout×Qout/Qin
where Cout is the concentration of tested drug in the effluent perfusates, Qin and Qout are the inlet and outlet flow rate (mL/min), respectively, which are adjusted for liquid density (mL/min).
The calculation of permeability across rat intestinal segment was performed from the intestinal perfusate samples collected over 15–120 min (steady state) using the following equation).
(4) Peff=-Qin ln(Cout(cor)/Cin)/2πrl

[5] = system: fibroblast growth factor receptor 2 (FGFR2); design: method as in PMID 21691074; settings: at a concentration of 10 μM; cited from earlier work
[6] = Solubility with sodium dodecyl sulfate (SDS) added; assay type: physicochemical; settings: aqueous with cosolvent or surfactant or cyclodextrin
Procedure: Intrinsic dissolution ratio is defined as the dissolution rate of a pure drug substance under the condition of constant surface area, agitation or stirring speed, pH and ionic strength of the dissolution medium. As a rate characterization, IDR data has a good correlation with in vivo drug dissolution rate. […] Three different SDS concentrations were tested. The solubilities of NCE were 54.46 (0.4% SDS), 131.83 (1% SDS) and 255.91 (2% SDS) μg/mL. The volume of the release medium in this experiment was 900 mL, thus the introduction of 1% SDS into the medium was enough to achieve sink condition.
The concentration of NCE in perfusion buffer containing 0.4% SDS was high enough to conduct the following intestinal permeability study. Additionally, according to preliminary experiments, SDS with concentrations higher than 1% would be toxic to rats.

CNC(=O)c1cc(Oc2ccc(NC(=O)c3cccc(C(F)(F)F)c3)cc2)ccn1.Cc1ccc(S(=O)(=O)O)cc1.O [NCE, 2-methylcarbamoyl-4-{4-[3-(trifluoromethyl)benzamido]phenoxy} pyridinium 4-methylbenzenesulfonate monohydrate]
pKa [1]: 2.86
Intrinsic dissolution rate (IDR) [2]: 1 × 10^−4 mg·min^−1·cm^−2
inhibition rate [3]: 97%
Peff ([4]; Duodenum, 2 μg/mL, with 0.4% SDS, n = 3): 0.26 ± 0.25 ^N.S. 10^−4 cm/s
Peff ([4]; Duodenum, 2 μg/mL, without SDS, n = 3): 0.26 ± 0.29 10^−4 cm/s
Peff ([4]; Duodenum, perfusate 2 μg/mL, 0.4% SDS, n = 6): 0.21 ± 0.18 10^−4 cm/s
Peff ([4]; Duodenum, perfusate 20 μg/mL, 0.4% SDS, n = 6): 0.34 ± 0.12 10^−4 cm/s
Peff ([4]; Duodenum, perfusate 40 μg/mL, n = 6): 0.49 ± 0.29 ^* 10^−4 cm/s and 0.49 ± 0.29 10^−4 cm/s
Peff ([4]; Ileum, 2 μg/mL, with 0.4% SDS, n = 3): 0.22 ± 0.15 ^N.S. 10^−4 cm/s
Peff ([4]; Ileum, 2 μg/mL, without SDS, n = 3): 0.23 ± 0.18 ^N.S. 10^−4 cm/s
Peff ([4]; Ileum, perfusate 2 μg/mL, 0.4% SDS, n = 6): 0.23 ± 0.25 ^N.S. 10^−4 cm/s
Peff ([4]; Ileum, perfusate 20 μg/mL, 0.4% SDS, n = 6): 0.29 ± 0.10 ^N.S. 10^−4 cm/s
Peff ([4]; Ileum, perfusate 40 μg/mL, n = 6): 0.52 ± 0.28 ^N.S. ^* 10^−4 cm/s and 0.52 ± 0.28 ^N.S. 10^−4 cm/s
Peff ([4]; Jejunum, 2 μg/mL, with 0.4% SDS, n = 3): 0.25 ± 0.22 ^N.S. 10^−4 cm/s
Peff ([4]; Jejunum, 2 μg/mL, without SDS, n = 3): 0.25 ± 0.24 ^N.S. 10^−4 cm/s
Peff ([4]; Jejunum, perfusate 2 μg/mL, 0.4% SDS, n = 6): 0.20 ± 0.30 ^N.S. 10^−4 cm/s
Peff ([4]; Jejunum, perfusate 20 μg/mL, 0.4% SDS, n = 6): 0.30 ± 0.15 ^N.S. 10^−4 cm/s
Peff ([4]; Jejunum, perfusate 40 μg/mL, n = 6): 0.56 ± 0.26 ^N.S. ^* 10^−4 cm/s and 0.56 ± 0.26 ^N.S. 10^−4 cm/s
transportation mechanism in intestine ([4]; Peff unchanged from 2–40 μg/mL): passive diffusion
permeability class ([4]; from Peff compared with theophylline, ranitidine and propranolol): high permeability
minimum of Peff ([4]; three segments, three concentrations, found in jejunum): 20 ×10⁻⁶ cm/s
inhibition rate [5]: 65%
solubility ([6]; phosphate buffer with 0.4% SDS): 54.5 µg/mL
solubility ([6]; phosphate buffer with 1% SDS): 132 µg/mL
solubility ([6]; phosphate buffer with 2% SDS): 256 µg/mL
